Assay results from US4937246A, “PAF antagonist, 1,4-disubstituted piperazine compounds and production thereof” (priority 1987, dated 1990).
Where two headings read alike, the source gives them in different places.

Tests used:
PAF-induced hypotension = assay: Inhibitory action on PAF-induced hypotension (oral administration); assay type: in vivo, rat (SD (Jcl)); conditions: Rattus norvegicus; for inhibition in vivo at 30 mg/kg: 30 mg/kg oral; for inhibition in vivo at 3 mg/kg: 3 mg/kg oral; for inhibition in vivo at 10 mg/kg: 10 mg/kg oral
Method: SD (Jcl) male rats of 6 to 8 week old were applied with cannulation into the femoral artery and vein under anesthesia with pentobarbital. The animals were fasted overnight, then subjected to the experiment. A tansducer (MPU-0.5-290-0-III, TOYO BALDWIN, Japan) was connected with the artery cannula, and blood pressure was continuously measured by means of polygraph (San-ei, Japan). When the blood pressure became constant, PAF (0.5 to 1.0 μg/kg, 250 μl/kg) dissolved in a physiological saline was injected through the venous cannula to lower the blood pressures by 30 to 45 mmHg. Thirty minutes later, PAF was injected again, and the average of lowered values of blood pressure (twice) was used as the control. After restoration of blood pressure to the initial level, test samples prepared by dissolving or suspending the drug in a physiological saline suspension of gum arabic (5%) were orally administered (5 ml/kg), then, after 1, 2 and 4 hours, PAF was injected. The rate of inhibition of lowering of blood pressure after administration of the test samples against the control was evaluated.

[1] = test system: PAF-induced platelet aggregation; assay: Inhibitory action on PAF-induced platelet aggregation (turbidimetry, platelet rich plasma); assay type: cell-based, rabbit (New Zealand white); conditions: Oryctolagus cuniculus, Concentration of test compound: 3 × 10^-5 M
Method: Blood was collected from the hearts of conscious New Zealand white male rabbits weighing 2 to 3 Kg using citric acid as an anticoagulant (one volume part of 3.15% citric acid relative to 9 volume parts of the whole blood). The blood was subjected to a centrifuge at 800 rpm for 10 minutes to obtain platelet rich plasma (PRP). The remaining blood after collecting the PRP was subjected to a centrifuge at 3000 rpm for 10 minutes to obtain platelet poor plasma (PPP). PRP was diluted with PPP to adjust the number of platelets to about 500,000/μl. Platelet aggregation was examined by means of turbidimetry [Born, Nature, 194, 927-929 (1962)] with 8 channel aggregometer (NBS HEMA TRACER 6 Nikoh, Bio-science, Japan). More concretely, PRP (250μl) was kept warm (37° C.) for 3 minutes in a silicon-processed cuvette, to which was added a test sample (25μl) dissolved in a physiological saline or in 10mM dimethlsulfoxide followed by dilution with a physiological saline. Two minutes later, PAF (25μl, 3×10^-9 -1×10^-8 M), dissolved in a physiological saline, was added and then the maximum aggregation rate was determined. As the control, physiological saline without test sample was added to the cuvette, and the inhibitory rate thereon was determined.
Incidentally, Compound B means N,N'-bis(3,4,5-trimethoxybenzoyl)piperazine (a known compound).

CCCCOc1c(OC)cc(C(=O)N2CCN(C(=O)c3cc(OC)c(OC)c(OC)c3)CC2)cc1[N+](=O)[O-] [compound 5]
inhibition in vivo at 30 mg/kg (PAF-induced hypotension; after 1 hr.): 91% | inhibition in vivo at 30 mg/kg (PAF-induced hypotension; after 2 hrs.): 93% | inhibition in vivo at 30 mg/kg (PAF-induced hypotension; after 4 hrs.): 88%

COc1ccc(C(=O)N2CCN(Cc3cc(OC)c(OC)c(OC)c3)CC2)cc1OC [compound 4]
inhibition in vivo at 30 mg/kg (PAF-induced hypotension; after 1 hr.): 64% | inhibition in vivo at 30 mg/kg (PAF-induced hypotension; after 2 hrs.): 32% | inhibition in vivo at 30 mg/kg (PAF-induced hypotension; after 4 hrs.): 22%

COc1cc(C(=O)N2CCN(C(=O)c3cc(OC)c(OC)c(OC)c3)CC2)cc(OC)c1OC [Compound B, N,N'-bis(3,4,5-trimethoxybenzoyl)piperazine, reference compound]
inhibition at 30 µM [1]: 100% | inhibition in vivo at 30 mg/kg (PAF-induced hypotension; after 1 hr.): 86% | inhibition in vivo at 30 mg/kg (PAF-induced hypotension; after 2 hrs.): 63% | inhibition in vivo at 30 mg/kg (PAF-induced hypotension; after 4 hrs.): 26% | LD50 (estimated) (rats; oral, rats, single dose): ~1000 mg/kg | survival (rats; rat, in vivo, po, 1000 mg/kg): all of the animals survived

COc1cc(CN2CCN(C(=O)c3ccc4c(c3)C(O)C3(CC3)O4)CC2)cc(OC)c1OC (centres unmarked) [compound 22]
inhibition at 30 µM [1]: 100% | inhibition in vivo at 30 mg/kg (PAF-induced hypotension; after 1 hr.): 94% | inhibition in vivo at 30 mg/kg (PAF-induced hypotension; after 2 hrs.): 80% | inhibition in vivo at 30 mg/kg (PAF-induced hypotension; after 4 hrs.): 2%

COc1cc(CN2CCN(C(=O)c3cc(OC)c(OC)c(OC)c3)CC2)cc(OC)c1OC [compound 2]
inhibition at 30 µM [1]: 100%

COc1cc(CN2CCN(C(=O)c3ccsc3)CC2)cc(OC)c1OC [compound 13]
inhibition at 30 µM [1]: 46%

CCCOc1c(OC)cc(C(=O)N2CCN(Cc3cc(OC)c(OC)c(OC)c3)CC2)cc1[N+](=O)[O-] [compound 3]
inhibition at 30 µM [1]: 100% | inhibition in vivo at 30 mg/kg (PAF-induced hypotension; after 1 hr.): 86% | inhibition in vivo at 30 mg/kg (PAF-induced hypotension; after 2 hrs.): 63% | inhibition in vivo at 30 mg/kg (PAF-induced hypotension; after 4 hrs.): 26%

COc1cc(CN2CCN(C(=O)c3cc4ccccc4o3)CC2)cc(OC)c1OC [compound 7]
inhibition at 30 µM [1]: 74% | inhibition in vivo at 30 mg/kg (PAF-induced hypotension; after 1 hr.): 4% | inhibition in vivo at 30 mg/kg (PAF-induced hypotension; after 2 hrs.): 15% | inhibition in vivo at 30 mg/kg (PAF-induced hypotension; after 4 hrs.): 25%

COc1cc(CN2CCN(C(=O)c3cccnc3)CC2)cc(OC)c1OC [compound 8]
inhibition at 30 µM [1]: 63%

COc1cc(CN2CCN(C(=O)C3CCc4sc5ccccc5c4C3O)CC2)cc(OC)c1OC (centres unmarked) [compound 19]
inhibition at 30 µM [1]: 64%

COc1cc(CN2CCN(C(=O)c3ccc4c(c3)C(=O)C3(CC3)O4)CC2)cc(OC)c1OC [compound 21]
inhibition at 30 µM [1]: 100%

COc1cc2c(cc1OC)SCCC(C(=O)N1CCN(C(=O)c3cc(OC)c(OC)c(OC)c3)CC1)=C2 [compound 24]
inhibition at 30 µM [1]: 100% | inhibition in vivo at 30 mg/kg (PAF-induced hypotension; after 1 hr.): 94% | inhibition in vivo at 30 mg/kg (PAF-induced hypotension; after 2 hrs.): 91% | inhibition in vivo at 30 mg/kg (PAF-induced hypotension; after 4 hrs.): 78%

COc1cc(CN2CCN(C(=O)c3cc4ccccc4oc3=O)CC2)cc(OC)c1OC [compound 12]
inhibition at 30 µM [1]: 78% | inhibition in vivo at 30 mg/kg (PAF-induced hypotension; after 1 hr.): 65% | inhibition in vivo at 30 mg/kg (PAF-induced hypotension; after 2 hrs.): 40% | inhibition in vivo at 30 mg/kg (PAF-induced hypotension; after 4 hrs.): 24%

COc1cc2c(cc1OC)OCCC(C(=O)N1CCN(C(=S)c3cc(OC)c(OC)c(OC)c3)CC1)=C2 [compound 29]
inhibition in vivo at 3 mg/kg (PAF-induced hypotension; after 1 hr.): 67% | inhibition in vivo at 3 mg/kg (PAF-induced hypotension; after 2 hrs.): 71% | inhibition in vivo at 3 mg/kg (PAF-induced hypotension; after 4 hrs.): 61% | inhibition in vivo at 30 mg/kg (PAF-induced hypotension; after 1 hr.): 100% | inhibition in vivo at 30 mg/kg (PAF-induced hypotension; after 2 hrs.): 100% | inhibition in vivo at 30 mg/kg (PAF-induced hypotension; after 4 hrs.): 100%

COc1cc2c(cc1OC)SCCC(C(=O)N1CCN(Cc3cc(OC)c(OC)c(OC)c3)CC1)=C2 [compound 23]
inhibition at 30 µM [1]: 74% | inhibition in vivo at 30 mg/kg (PAF-induced hypotension; after 1 hr.): 94% | inhibition in vivo at 30 mg/kg (PAF-induced hypotension; after 2 hrs.): 94% | inhibition in vivo at 30 mg/kg (PAF-induced hypotension; after 4 hrs.): 67%

COc1cc2c(cc1OC)OCCC(C(=O)N1CCN(C(=O)c3cc(OC)c(OC)c(OC)c3)CC1)C2 (centres unmarked) [compound 33]
inhibition at 30 µM [1]: 47% | inhibition in vivo at 30 mg/kg (PAF-induced hypotension; after 1 hr.): 99% | inhibition in vivo at 30 mg/kg (PAF-induced hypotension; after 2 hrs.): 99% | inhibition in vivo at 30 mg/kg (PAF-induced hypotension; after 4 hrs.): 79%

COc1cc(CN2CCN(C(=O)c3ccc4c(c3)OCCO4)CC2)cc(OC)c1OC [compound 17]
inhibition at 30 µM [1]: 88%

COc1ccc2c(c1)OCCC(C(=O)N1CCN(C(=O)c3cc(OC)c(OC)c(OC)c3)CC1)=C2 [compound 28]
inhibition in vivo at 30 mg/kg (PAF-induced hypotension; after 1 hr.): 92% | inhibition in vivo at 30 mg/kg (PAF-induced hypotension; after 2 hrs.): 91% | inhibition in vivo at 30 mg/kg (PAF-induced hypotension; after 4 hrs.): 92%

COc1cc2c(cc1OC)OCCC(C(=O)N1CCN(Cc3cc(OC)c(OC)c(OC)c3)CC1)=C2 [compound 25]
inhibition at 30 µM [1]: 100% | inhibition in vivo at 30 mg/kg (PAF-induced hypotension; after 1 hr.): 100% | inhibition in vivo at 30 mg/kg (PAF-induced hypotension; after 2 hrs.): 97% | inhibition in vivo at 30 mg/kg (PAF-induced hypotension; after 4 hrs.): 70%

COc1ccc2c3c(oc2c1)CCC(C(=O)N1CCN(Cc2cc(OC)c(OC)c(OC)c2)CC1)=C3 [compound 18]
inhibition at 30 µM [1]: 84%

COc1cc2c(cc1OC)OCCC(C(=O)N1CCN(C(=O)c3cc(OC)c(OC)c(OC)c3)CC1)=C2 [compound 26]
inhibition at 30 µM [1]: 100% | inhibition in vivo at 3 mg/kg (PAF-induced hypotension; after 1 hr.): 74% | inhibition in vivo at 3 mg/kg (PAF-induced hypotension; after 2 hrs.): 70% | inhibition in vivo at 3 mg/kg (PAF-induced hypotension; after 4 hrs.): 44% | inhibition in vivo at 10 mg/kg (PAF-induced hypotension; after 1 hr.): 100% | inhibition in vivo at 10 mg/kg (PAF-induced hypotension; after 2 hrs.): 100% | inhibition in vivo at 10 mg/kg (PAF-induced hypotension; after 4 hrs.): 87% | inhibition in vivo at 30 mg/kg (PAF-induced hypotension; after 1 hr.): 98% | inhibition in vivo at 30 mg/kg (PAF-induced hypotension; after 2 hrs.): 99% | inhibition in vivo at 30 mg/kg (PAF-induced hypotension; after 4 hrs.): 100%

COc1cc(CN2CCN(C(=O)c3nc4ccccc4s3)CC2)cc(OC)c1OC [compound 9]
inhibition at 30 µM [1]: 52%

COc1cc(CN2CCN(C(=O)c3cc4ccccc4o3)CC2)cc(OC)c1OC.Cl [Working Example 7, 1-(2-benzofuranylcarbonyl)4-(3,4,5-trimethoxybenzyl)piperazine hydrochloride]
survival (rats; single oral dose 1000 mg/kg, rats, one week observation): all of the animals survived

COc1ccc2c(c1)C=C(C(=O)N1CCN(C(=O)c3cc(OC)c(OC)c(OC)c3)CC1)CCO2 [compound 27]
inhibition in vivo at 10 mg/kg (PAF-induced hypotension; after 1 hr.): 79% | inhibition in vivo at 10 mg/kg (PAF-induced hypotension; after 2 hrs.): 75% | inhibition in vivo at 10 mg/kg (PAF-induced hypotension; after 4 hrs.): 62% | inhibition in vivo at 30 mg/kg (PAF-induced hypotension; after 1 hr.): 100% | inhibition in vivo at 30 mg/kg (PAF-induced hypotension; after 2 hrs.): 100% | inhibition in vivo at 30 mg/kg (PAF-induced hypotension; after 4 hrs.): 86%

COc1cc(CN2CCN(C(=O)c3cnc4ccccc4c3)CC2)cc(OC)c1OC [compound 16]
inhibition at 30 µM [1]: 58%

COc1cc(CN2CCN(C(=O)C3=Cc4cc5c(cc4CC3)OCO5)CC2)cc(OC)c1OC [compound 6]
inhibition at 30 µM [1]: 93%
